Assay results published in paper PMC11200585, “Prospects for Prostate Cancer Chemotherapy: Cytotoxic Evaluation and Mechanistic Insights of Quinolinequinones with ADME/PK Profile” (Biomedicines, 2024).

Assays:
[1] = Log P (experimental, n-octanol); format: physicochemical
[2] = tested on: NCI-H460; experiment: NCI-60 five-dose assay (non-small cell lung cancer); format: cell-based, human; conditions: 48 h, SRB; for GI50 / CC50: Homo sapiens; for CC50: read-out: LC50 (the source's name)
[3] = tested on: NCI-H522; experiment: as above; format: cell-based, human; conditions: 48 h, SRB; for GI50 / LC50: Homo sapiens
[4] = tested on: NCI/ADR-RES; experiment: NCI-60 five-dose assay (ovarian cancer); format: cell-based, human; conditions: 48 h, SRB; for GI50 / CC50: Homo sapiens; for CC50: read-out: LC50 (the source's name)
[5] = Log D (experimental, n-octanol); format: physicochemical; conditions: n-octanol (aqueous phase not stated)
[6] = tested on: DU-145 cells; experiment: MTT assay; format: cell-based; conditions: Homo sapiens, 24 h, mean ± SEM
Procedure: (§1) For the MTT assay, DU-145, MDA-MB-231, HCT-116, and HUVEC cells (American Type Culture Collection) were seeded at a concentration of 1 × 10^4 cells per well in 96-well plates and allowed to incubate overnight, ensuring proper adherence. Subsequently, a series of concentrations for both AQQ1 and AQQ2 (ranging from 1 to 100 µM) were added to the culture medium with a final concentration of 1% DMSO, and cells were subjected to an additional 24 h incubation period. The control group only received 1% DMSO (Biomatik, Cambridge, ON, Canada). To establish a baseline for comparison, DOXO (Saba, İstanbul, Turkey), a known chemotherapeutic agent, was administered at equivalent concentrations. Following the incubation period, MTT (3-(4,5-dimethylthiazol-2-yl)-2,5-diphenyltetrazolium bromide) (Biomatik, Canada) assay was carried out to assess cell viability. Finally, the absorbance was quantified at 590 nm using a BioTek Epoc plate reader (Biotek, Winooski, VT, USA). The derived data were analysed using GraphPad Prism 8 software to calculate the inhibitory concentration 50 (IC50) values of the test compounds.

[7] = tested on: HCT-116 cells; experiment: MTT assay; format: cell-based; conditions: Homo sapiens, 24 h, mean ± SEM
Procedure: as §1

[8] = tested on: MDA-MB-231 cells; experiment: MTT assay; format: cell-based; conditions: Homo sapiens, 24 h, mean ± SEM
Procedure: as §1

[9] = tested on: Human Umbilical Vein Endothelial Cells (HUVEC); experiment: MTT assay; format: cell-based; conditions: 24 h, mean ± SEM
Procedure: as §1

[10] = In vitro metabolic stability; format: in vitro ADME; conditions: for % Metabolism in 30 min: 0.5 µM, 0.5 mg/mL protein; for half-life at 0.5 µM / microsomal CLint at 0.5 µM: pH 7.4
Procedure: S2. ADME and PK Profiling
S2.1. In vitro Metabolic Stability Study […]
metabolic stability of AQQ1 and AQQ2. A final protein (liver microsomal) concentration of 0.5 mg/mL and final test substance (AQQ1 and AQQ2) concentration of 0.5 µM were used for the study. To the respective microsomes at a volume of 12.5 µL in the well, 2.5 µL of test substance ([…] in acetonitrile: dimethyl sulfoxide, 96:4) in the presence and absence of NADPH (50 µL, 10 mM) were added and the final volume made up to 500 µL with sodium phosphate buffer (50 mM, pH 7.4). The one without NADPH served as control. Sampling (50 µL) were done at the following time points: 0, 5, 10, 15, and 30 min for sample and at 0 and 30 min for control.
Acetonitrile (150 µL) was used as quenching solvent, internal standard (Rolipram) was added, vortexed/centrifuged and the aliquot from the supernatant was analyzed using LC-MS/MS. All the experiments were performed in duplicate.

[11] = In vivo bioavailability / pharmacokinetic study IV and PO; set-up: species or system male Sprague-Dawley rats; conditions: rat; for AUC(0-inf) / AUC(0-t) / C0 / MRT last / Vd / clearance / half-life / Cmax / Tmax: male, Sprague-Dawley, whole blood; for Tmax: median
Procedure: Using the validated Phoenix® WinNonlin® 8.3 NCA tool Version 8 or higher (Certara L.P.), USA, pharmacokinetic parameters were computed. As appropriate, Cmax, Tmax, and exposures (AUCinfinity and AUClast) were calculated. Furthermore, pharmacokinetic characteristics such as distribution volume (Vd), […] (CL), elimination half-life (T1/2), and parenteral route like (C0) were evaluated. Using dose-normalized non-intravenous exposure versus dose-normalized intravenous exposure, oral bioavailability (F%) was computed (Table 5).
S2.2. In vivo Bioavailability Study of AQQ1 and AQQ2 in Male Sprague-Dawley Rats Sprague-Dawley rats (HyLasco Biotechnology (India) Pvt. Ltd., a subsidiary of Charles River from the US) of 8-12 weeks of age (at the time of treatment), weighing between 220 and 320 g, […]
Housing: Animals were housed in polysulfonate cages in a typical research laboratory environment at 25 ± 3°C and 50%-70% relative humidity with approximately 12 h light and dark cycles maintained with an enrichment device. During the study, the animals had access to a rat maintenance diet (Altromin Spezialfutter GmbH, Germany) and purified water (UV-treated, […]
Animal experiments were conducted in accordance with the guidelines of the Committee for the Purpose of Control and Supervision of Experiments on Animals (CPCSEA), Ministry of […], Government of India, and approved by the Institutional Animal Ethics Co m m i tt e e . […] AQQ1 a n d AQQ2 in NMP (10%) + PBS (pH 7.4) qs was administered intravenously at a dose of 1 mg/kg bw (10 mL/kg). AQQ1 and AQQ2 in NMP (10%) + Cremophor EL (5%) + PEG400 (30%) + PG (20%) + PBS (pH 7.4) qs was administered PO at a dose of 5 mg/kg bw (10 mL/kg). The animal weight on the day of dosing was used to calculate the required volume of the formulation and administered to the rats.
After dosing, blood samples (~0.250 mL) were collected from the jugular vein at the following time points: 0.083 (IV only), 0.25, 0.5, 1, 2, 4, 6, 8, and 24 h using a serial sampling design (equal volumes of heparinized saline were replaced after each sample collection). The samples were collected in pre-labeled microcentrifuge tubes containing K2EDTA (20 μL of 200 mM solution […]
per mL of blood) as an anticoagulant. The blood samples were stored at -60°C until bioanalysis using the fit-for-purpose LC-MS/MS method. Pharmacokinetic parameters were calculated using the non-compartmental analysis (NCA) tool of the validated Phoenix® WinNonlin® 8.3.
Group Treatment/Route Dose (mg/kg) Dose volume (mL/kg) Stregth

| Structure (SMILES) | logP [1] | TGI [2] [µM] | GI50 [2] [µM] | CC50 [2] [µM] | TGI [3] [µM] | GI50 [3] [µM] | LC50 [3] [µM] | TGI [4] [µM] | GI50 [4] [µM] | CC50 [4] [µM] | logD [5] | IC50 [6] [µM] | IC50 [7] [µM] | IC50 [8] [µM] | IC50 [9] [µM] | % Metabolism in 30 min ([10]; Human liver microsomes) [%] | % Metabolism in 30 min ([10]; Mouse liver microsomes) [%] | half-life at 0.5 µM ([10]; Human liver microsomes) [h] | microsomal CLint at 0.5 µM ([10]; Human liver microsomes) [µL/min/mg] | half-life at 0.5 µM ([10]; Mouse liver microsomes) [h] | also measured |
| --- | --- | --- | --- | --- | --- | --- | --- | --- | --- | --- | --- | --- | --- | --- | --- | --- | --- | --- | --- | --- | --- |
| CCOc1ccccc1NC1=C(Cl)C(=O)c2nc(C)ccc2C1=O [AQQ2] | 1.77 | 11.4 | 3.02 | 45.4 | 3.28 | 1.74 | 6.18 | 5.09 | 1.89 | > 100 | 2.35 | 4.17 ± 0.8 | 9.18 ± 0.96 | 13.3 ± 1.12 | 6.39 ± 0.8 | 47 | 96.5 | 0.442 | 52 | 0.0917 | microsomal CLint at 0.5 µM ([10]; Mouse liver microsomes): 249 µL/min/mg; AUC(0-inf) ([11]; IV 1 mg/kg): 110 ± 18.1 ng·h/mL; AUC(0-t) ([11]; IV 1 mg/kg): 77 ± 21 ng·h/mL; C0 ([11]; IV 1 mg/kg): 23.2 ± 12.8 ng/mL; MRT last ([11]; IV 1 mg/kg): 6.84 ± 1.84 h; Vd ([11]; IV 1 mg/kg): 147 ± 9.71 L/kg; clearance ([11]; IV 1 mg/kg): 154 ± 26.9 mL/min/kg; half-life ([11]; IV 1 mg/kg): 12.8 ± 2.95 h; AUC(0-inf) ([11]; PO 5 mg/kg): 2370 ± 375 ng·h/mL; AUC(0-t) ([11]; PO 5 mg/kg): 2300 ± 416 ng·h/mL; Cmax ([11]; PO 5 mg/kg): 282 ± 79.4 ng/mL; MRT last ([11]; PO 5 mg/kg): 6.61 ± 0.787 h; half-life ([11]; PO 5 mg/kg): 4.72 ± 1.16 h; Tmax ([11]; PO 5 mg/kg): 1 h; plasma clearance relative to normal hepatic blood flow of rats ([11]; IV 1 mg/kg): approximately 2.8 fold; volume of distribution relative to 0.7 L/kg total body fluids ([11]; IV 1 mg/kg): approximately 210 fold |
| COc1cc(NC2=C(Cl)C(=O)c3nc(C)ccc3C2=O)cc(OC)c1 [AQQ5] |  | 8.07 | 2.68 | 82.6 | 3.06 | 1.56 | 6.02 | 4.47 | 1.81 | 21.7 |  |  |  |  |  |  |  |  |  |  |  |
| COc1ccccc1NC1=C(Cl)C(=O)c2nc(C)ccc2C1=O [AQQ1] | 1.85 | 12 | 3.22 | 52.7 | 3.36 | 1.81 | 6.24 | 5.16 | 2.03 | 34.6 | 2.37 | 4.18 ± 0.73 | 5.83 ± 0.76 | 8.27 ± 0.91 | 5.39 ± 0.73 | 39.5 | 63 | > 0.5 | 39 | 0.342 | microsomal CLint at 0.5 µM ([10]; Mouse liver microsomes): 68.5 µL/min/mg; AUC(0-inf) ([11]; IV 1 mg/kg): 115 ± 45.7 ng·h/mL; AUC(0-t) ([11]; IV 1 mg/kg): 77.5 ± 9.81 ng·h/mL; C0 ([11]; IV 1 mg/kg): 90.8 ± 71.3 ng/mL; MRT last ([11]; IV 1 mg/kg): 3.77 ± 0.279 h; Vd ([11]; IV 1 mg/kg): 90.3 ± 40 L/kg; clearance ([11]; IV 1 mg/kg): 161 ± 62.9 mL/min/kg; half-life ([11]; IV 1 mg/kg): 9.35 ± 8.75 h; AUC(0-inf) ([11]; PO 5 mg/kg): 4000 ± 179 ng·h/mL; AUC(0-t) ([11]; PO 5 mg/kg): 3810 ± 111 ng·h/mL; Cmax ([11]; PO 5 mg/kg): 435 ± 18.1 ng/mL; MRT last ([11]; PO 5 mg/kg): 7.47 ± 0.367 h; half-life ([11]; PO 5 mg/kg): 5.22 ± 0.843 h; Tmax ([11]; PO 5 mg/kg): 0.5 h; plasma clearance relative to normal hepatic blood flow of rats ([11]; IV 1 mg/kg): approximately 2.93 fold |
| CCOc1ccc(NC2=C(Cl)C(=O)c3nc(C)ccc3C2=O)cc1 [AQQ3] |  | 10.4 | 3.08 | 49.7 | 3.22 | 1.75 | 5.94 | 4.11 | 1.7 | 9.93 |  |  |  |  |  |  |  |  |  |  |  |
